Experimental data: patent US20240391930A1, “SPIROCYCLIC BICYCLIC MODULATORS OF CHOLESTEROL BIOSYNTHESIS AND THEIR USE FOR PROMOTING REMYELINATION” (GENENTECH, INC., priority 2021, published 2024)

Legend:
[1] = molecular target: T1, human emopamil binding protein and human 7-dehydrocholesterol reductase (hEBP-DHCR7) (Homo sapiens, UniProt Q15125); assay: hEBP-DHCR7 radioligand filtration binding assay; conditions: membranes of HEK293 co-expressing hEBP and DHCR7; [3H] 2-thia-6-azaspiro[3.4]octane radioligand; 8 doses 0.06 to 5000 nM
T1 construct: expressed in transfected cells; host or cells: HEK 293 cells, transient transfection with 2 DNA constructs
T1 sequence (Q15125 whole entry): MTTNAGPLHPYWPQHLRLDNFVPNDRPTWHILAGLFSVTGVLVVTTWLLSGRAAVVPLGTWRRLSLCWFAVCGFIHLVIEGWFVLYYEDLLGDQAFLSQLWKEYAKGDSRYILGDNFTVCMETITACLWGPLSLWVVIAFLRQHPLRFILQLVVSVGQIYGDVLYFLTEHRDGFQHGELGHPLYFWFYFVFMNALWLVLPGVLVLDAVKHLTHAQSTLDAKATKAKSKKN
Experimental: Membrane Preparation: human emopamil binding protein and human 7-dehydrocholesterol reductase co-expressing cells were generated by transient transfecting host human embryonic kidney (HEK) 293 cells with 2 DNA constructs containing each protein's coding sequence. Cells were suspension cultured at 37° C. with 5% CO2 in […] 293 Expression Medium (Thermofisher). Whole cell membrane was prepared by harvesting the cell pellet, adding cold membrane buffer (50 mM Tris, pH7.5, lx Roche COMPLETE EDTA-free protease inhibitor cocktail) 10 times volume of the cell pellets weight, lysing cell pellet on ice by using Dounce homogenizer, spinning at 200 g 4° C. for 15 min, collecting supernatant and spinning again at 25000 g 4° C. for 50 min, transferring pellet to Dounce homogenizer, re-suspending pellet by homogenizing in membrane buffer on ice to reach ˜25 mg/mL, then keeping whole cell membrane aliquots at −80° C.
Compounds were prepared in a 96-well U bottom plate using an Echo550 machine and 10 mM compound DMSO stock solution, followed by an 8-dose 5-fold serial dilutions protocol with final testing compound concentration ranging from 0.06 to 5000 nM, with DMSO back fill to 100 nL/well and n=2. […] The UniFilter-96 GF/B plates were pre-treated by adding 50 µl/well of 0.3% (v/v) PEI to UniFilter-96 GF/B plates. The plates were sealed and incubated at 4° C. for 3 hrs. Then, the plates were washed with ice-cold assay buffer 3 times. The radioligand binding assay was prepared by adding assay buffer diluted hEBP-DHCR7 membrane at 66.7 μg/ml×150 l/well into the 96-well compound plate to reach 10 μg membrane per well. Then, the assay buffer diluted [3H]—((S)-6-(2-Methyl-3-(6-(trifluoromethyl)pyridin-3-yl)propyl)-2-thia-6-azaspiro[3.4]octane 2,2-dioxide or (R)-6-(2-Methyl-3-(6-(trifluoromethyl)pyridin-3-yl)propyl)-2-thia-6-azaspiro[3.4]octane 2,2-dioxide) was added at 25 nM×50 l/well. Following this, the plate was centrifuged at 1000 rpm for 30 secs. The plate was then sealed and agitated at 600 rpm at 22° C. for 5 min, and then incubated at 22° C. for 3 hrs. The incubation was stopped by transferring the binding solution to the pre-treated UniFilter-96 GF/B plate, vacuum filtrated, and then washed four times with ice-cold assay buffer. Following this, the plates were dried at 37° C. for 45 min. The plates were then sealed at the bottom. 40 µl/well of scintillation cocktail was added to the plates. A MicroBeta2 microplate counter was then used to read the plate and analyze the data. For reference and test compounds, the results are expressed as % Inhibition, using the normalization equation: N=100−100×(U−C2)/(C1−C2), where U is the unknown value, C1 is the average of high controls, and C2 is the average value of low controls. The IC50 was determined by fitting percentage of inhibition as a function of compound concentrations with Hill equation using XLfit. Results are expressed as hEBP-DHCR7 Ki (uM) in Table 4. Ki was calculated as described above; * indicates isolated isomer or isomers, but that the stereochemistry has not been assigned.

[2] = tested on: zymostenol accumulation in EpiSC-derived OPCs (EBP); assay: GC/MS-based sterol profiling (zymostenol accumulation); format: cell-based; conditions: Mus musculus, 24 hours, 8 doses from 0.15 nM to 333 nM, read-out: Zymostenol GCMS EC50
Method in brief: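 Zymostenol level is expressed relative to that after 24 h with 100 nM positive-control reference, measured by full-scan GC/MS (m/z 458) with cholesterol-d7 internal standard after BSTFA derivatisation. Cells were EpiSC-derived OPCs, 100,000/well in N2B27 without growth factors, treated 24 h, from two or more independent platings.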

EpiSC-derived OPCs = assay: In vitro phenotypic screening of OPCs (MBP high-content imaging); format: cell-based; conditions: Mus musculus, 72 h; percentage of MBP-positive oligodendrocytes, 3 days, 0.5 nM to 1000 nM; read-out: OPC EC50
Experimental: To assess effects of treatments on OPCs, all treatments were assayed in two or more independent platings of epiblast stem cell-derived OPCs (EpiSC). EpiSC-derived OPCs were obtained using in vitro differentiation protocols and culture conditions described previously (Najm et al, 2011, Nature Methods). OPCs were expanded and frozen down in aliquots. OPCs were thawed into growth conditions for at least one passage before use in further assays.
EpiSC-derived OPCs were grown and expanded in poly-L-ornithine (PO) and laminin-coated flasks in N2B27 media (DMEM/F12 (Gibco), N2-MAX (R&D Systems), B-27 (ThermoFisher), and GlutaMax (Gibco)) supplemented with FGF2 ([…], R&D systems, 233-FB-025) and PDGF-AA ([…], R&D systems, 233-AA-050) before harvesting for experiments. The cells were seeded onto poly-L-ornithine or poly-D-lysine coated CellCarrier Ultra plates (PerkinElmer) coated with laminin (Sigma, L2020) at a density of 150,000/cm^2 in N2B27 media without growth factors. For dose-response testing, a 1000× compound stock in dimethyl sulphoxide (DMSO) was added to assay plates, resulting in 8-point dose curves with final concentrations between 1000 nM and 0.5 nM. Positive controls and DMSO vehicle controls were included in each assay plate. Cells were incubated under standard conditions (37° C., 5% CO2) for 3 days and fixed with 4% paraformaldehyde (PFA) in phosphate buffered saline (PBS) for 20 min. Fixed plates were washed with PBS, permeabilized with 0.1% Triton X-100, and blocked with 10% donkey serum (v/v) in PBS for 40 min. Then, cells were labelled with MBP antibodies (Abcam, ab7349; 1:200) for 2 h at room temperature, washed with PBS, and stained with Alexa Fluor conjugated secondary antibodies (1:500) for 45 min. Nuclei were visualized by DAPI staining (Sigma; 1 μg/ml), followed by further PBS washes.
Cells and cell culture plates were imaged on the Operetta High Content Imaging and Analysis system (PerkinElmer). Analysis (PerkinElmer Harmony and Columbus software) began by identifying intact nuclei stained by DAPI. The peri-nuclear region of each cell was then cross-referenced with the […] (MBP) stain to identify oligodendrocyte nuclei, and from this the percentage of oligodendrocytes was calculated.

Row | Ki [1] [nM] | EC50 [2] [nM] | EC50 (EpiSC-derived OPCs) [nM] | Structure (SMILES)
1 | 12 | 3.3 | 19 | CC(C)(C)n1nc(C(F)(F)F)cc1[C@H]1[C@@H]2C[C@H](N3CCC4(C3)CS(=O)(=O)C4)C[C@@H]21 (single isomer, unassigned) [Compound 58]
2 | 65.2 | 19 | 130 | O=S1(=O)CC2(CCN([C@H]3C[C@@H]4[C@H](C3)[C@H]4c3cc(C(F)(F)F)nn3CC(F)F)CC2)C1 (single isomer, unassigned) [Compound 63*]
3 | 34.3 | 4.4 | 27 | CCn1nc(-c2cncc(F)c2)cc1[C@H]1[C@@H]2C[C@H](N3CCC4(C3)CS(=O)(=O)C4)C[C@@H]21 (single isomer, unassigned) [Compound 69*]
4 | 70.5 | 21 | 190 | O=S1(=O)CC2(CCN([C@@H]3C[C@@H]4[C@H](C3)[C@H]4c3cc(C(F)(F)F)nn3CC(F)F)C2)C1 (single isomer, unassigned) [Compound 90*]
5 | 42.5 | 14 | 64.6 | CC(C)n1nc(-c2cnc(C(F)(F)F)nc2)cc1[C@H]1[C@@H]2C[C@@H](N3CCC4(C3)CS(=O)(=O)C4)C[C@@H]21 (single isomer, unassigned) [Compound 102]

More lines, now with the values behind:

Row | Structure (SMILES) | Ki [1] [nM] | EC50 [2] [nM] | EC50 (EpiSC-derived OPCs) [nM]
6 | O=S1(=O)CC2(CCN([C@@H]3C[C@@H]4[C@H](C3)[C@H]4c3cc(C(F)(F)F)nn3CC(F)F)CC2)C1 (single isomer, unassigned) [Compound 62*] | 134 | 12 | 60
7 | CCn1nc(-c2cccnc2)cc1[C@H]1[C@@H]2C[C@H](N3CCC4(C3)CS(=O)(=O)C4)C[C@@H]21 (single isomer, unassigned) [Compound 65*] | 51.9 | 18 | 65
8 | CCn1nc(-c2cncc(F)c2)cc1[C@H]1[C@@H]2C[C@@H](N3CCC4(C3)CS(=O)(=O)C4)C[C@@H]21 (single isomer, unassigned) [Compound 68*] | 86.2 | 14 | 60
9 | CC(C)(C)n1nc(-c2cccc(C(F)(F)F)c2)nc1[C@H]1[C@@H]2C[C@@H](N3CCC4(C3)CS(=O)(=O)C4)C[C@@H]21 (single isomer, unassigned) [Compound 75] | 14.9 | 2.2 | 6.2
10 | CC(C)n1nc([C@H]2CC[C@](O)(C(F)(F)F)CC2)cc1[C@H]1[C@@H]2C[C@@H](N3CCC4(C3)CS(=O)(=O)C4)C[C@@H]21 (single isomer, unassigned) [Compound 104*] | 164 | 25.8 | 175
11 | CC(C)n1nc([C@H]2CC[C@H](C(F)(F)F)CC2)cc1[C@H]1[C@@H]2C[C@@H](N3CCC4(C3)CS(=O)(=O)C4)C[C@@H]21 (single isomer, unassigned) [Compound 107] | 16 | 7.59 | 52.5
12 | CCn1nc(-c2ccnc(C(F)(F)F)c2)cc1[C@H]1[C@@H]2C[C@@H](N3CCC4(C3)CS(=O)(=O)C4)C[C@@H]21 [Compound 26, 6-((1R,3s,5S,6r)-6-(1-ethyl-3-(2-(trifluoromethyl)pyridin-4-yl)-1H-pyrazol-5-yl)bicyclo[3.1.0]hexan-3-yl)-2-thia-6-azaspiro[3.4]octane 2,2-dioxide] | 19.8 | 4.4 | 6.5
13 | CCn1nc(-c2ccnc(C(F)(F)F)c2)cc1[C@H]1[C@@H]2C[C@H](N3CCC4(C3)CS(=O)(=O)C4)C[C@@H]21 [Compound 27, 6-((1R,3r,5S,6r)-6-(1-ethyl-3-(2-(trifluoromethyl)pyridin-4-yl)-1H-pyrazol-5-yl)bicyclo[3.1.0]hexan-3-yl)-2-thia-6-azaspiro[3.4]octane 2,2-dioxide] | 11.6 | 2.3 | 1.6
